Values quoted from earlier work in US20190046552A1, “COMPOSITIONS AND METHODS FOR THE TREATMENT OF HCV INFECTION” (priority 2015, published 2019).

Tested on: panel of cell lines
Details: read-out: 50% cytotoxic concentration (CC50), Coughlin et al. 2010; cited from earlier work

CO[C@H]1C(OP(=O)(OC[C@H]2O[C@@H](n3cnc4c(N)ncnc43)CC2O)SCOC(=O)OC(C)C)[C@@H](CO)O[C@H]1n1ccc(=O)[nH]c1=O (stereo partly shown) [Formula (II)]
CC50: > 1000 µM
